Assay results published in US9221838B2, “Inhibitors of AKT activity” (ALMAC DISCOVERY LIMITED, priority 2009, dated 2015).

Assays:
Assay type in all cases: biochemical
[1] = target: T1, AKT1 (Homo sapiens, UniProt P31749); assay: AKT Kinase Assay (IMAP fluorescent polarisation) vs AKT1
T1 construct: purchased SignalChem
How it was run: (§1)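 Phosphorylation of FAM-Crosstide detected by IMAP binding and fluorescence polarisation (485/528 nm), with IC50 fitted from % inhibition versus vehicle. Compound was incubated 45 min with enzyme, then reacted 1 h at room temperature with ATP and peptide in Tris/MgCl2/DTT buffer. Dose response had fourteen half-log points.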

[2] = target: T2, AKT2 (Homo sapiens, UniProt P31751); assay: AKT Kinase Assay (IMAP fluorescent polarisation) vs AKT2
T2 construct: purchased SignalChem
How it was run: as §1

[3] = target: T3, AKT3 (Homo sapiens, UniProt Q9Y243); assay: AKT Kinase Assay (IMAP fluorescent polarisation) vs AKT3
T3 construct: purchased SignalChem
How it was run: as §1

T1 sequence (P31749 whole entry): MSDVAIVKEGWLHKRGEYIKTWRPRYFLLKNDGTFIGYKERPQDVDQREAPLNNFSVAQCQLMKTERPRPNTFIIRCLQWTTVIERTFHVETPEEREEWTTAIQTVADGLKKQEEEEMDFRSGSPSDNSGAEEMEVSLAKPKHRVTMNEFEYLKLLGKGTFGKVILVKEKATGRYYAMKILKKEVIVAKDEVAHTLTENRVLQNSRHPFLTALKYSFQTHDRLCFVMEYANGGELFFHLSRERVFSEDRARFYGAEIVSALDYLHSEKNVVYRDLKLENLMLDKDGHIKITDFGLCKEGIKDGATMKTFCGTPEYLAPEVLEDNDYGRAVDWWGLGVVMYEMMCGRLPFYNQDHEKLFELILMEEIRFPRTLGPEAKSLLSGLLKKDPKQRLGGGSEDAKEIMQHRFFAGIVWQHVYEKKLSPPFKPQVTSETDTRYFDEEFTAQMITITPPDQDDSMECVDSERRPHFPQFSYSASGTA
T2 sequence (P31751 whole entry): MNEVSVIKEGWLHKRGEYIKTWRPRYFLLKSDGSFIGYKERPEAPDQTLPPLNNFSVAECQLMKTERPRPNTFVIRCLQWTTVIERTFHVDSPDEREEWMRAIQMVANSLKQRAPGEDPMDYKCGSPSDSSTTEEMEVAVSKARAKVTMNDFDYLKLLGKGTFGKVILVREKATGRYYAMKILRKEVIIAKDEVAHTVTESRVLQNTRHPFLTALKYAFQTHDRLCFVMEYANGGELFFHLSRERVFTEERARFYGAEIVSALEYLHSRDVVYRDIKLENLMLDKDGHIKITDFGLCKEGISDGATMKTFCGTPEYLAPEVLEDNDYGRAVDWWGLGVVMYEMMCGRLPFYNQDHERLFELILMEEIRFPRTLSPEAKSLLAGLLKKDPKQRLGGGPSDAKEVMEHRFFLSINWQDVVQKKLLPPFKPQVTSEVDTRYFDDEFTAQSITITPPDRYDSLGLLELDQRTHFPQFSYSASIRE
T3 sequence (Q9Y243 whole entry): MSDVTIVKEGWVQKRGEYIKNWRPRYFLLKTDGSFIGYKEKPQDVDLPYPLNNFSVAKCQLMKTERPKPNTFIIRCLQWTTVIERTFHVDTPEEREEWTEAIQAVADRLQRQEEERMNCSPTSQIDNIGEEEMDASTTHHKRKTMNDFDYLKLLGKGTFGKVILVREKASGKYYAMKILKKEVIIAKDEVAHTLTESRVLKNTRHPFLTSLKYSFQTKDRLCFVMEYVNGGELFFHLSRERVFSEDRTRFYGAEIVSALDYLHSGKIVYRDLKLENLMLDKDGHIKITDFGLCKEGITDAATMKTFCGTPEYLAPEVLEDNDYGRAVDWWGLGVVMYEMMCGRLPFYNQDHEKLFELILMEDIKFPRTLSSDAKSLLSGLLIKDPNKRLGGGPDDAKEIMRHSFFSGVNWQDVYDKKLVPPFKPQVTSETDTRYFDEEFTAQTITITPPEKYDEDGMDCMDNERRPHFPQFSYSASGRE

| Structure (SMILES) | IC50 [1] [nM] | IC50 [2] [nM] | IC50 [3] [nM] |
| --- | --- | --- | --- |
| NC1(c2ccc(-c3nc4c(cc3-c3ccccc3)-n3c(nn(CC(F)(F)F)c3=O)CO4)cc2)CCC1 [Example 103, 7-(4-(1-aminocyclobutyl)phenyl)-8-phenyl-2-(2,2,2-trifluoroethyl)-2,4-dihydro-1H-pyrido[2,3-b][1,2,4]triazolo[4,3-d][1,4]oxazin-1-one] | 1000 to 10000 | 100 to 1000 | 1000 to 10000 |
| NC1(c2ccc(-c3nc4c(cc3-c3ccccc3)NC(=O)CCN4)cc2)CCC1 [Example 104, 7-(4-(1-aminocyclobutyl)phenyl)-8-phenyl-4,5-dihydro-1H-pyrido[2,3-b][1,4]diazepin-2(3H)-one] | 100 to 1000 | 1000 to 10000 | > 10000 |
| NC1(c2ccc(-c3nc4c(cc3-c3ccccc3)-n3c(CO)nnc3CO4)cc2)CCC1 [Example 107] | ≤ 100 | 1000 to 10000 | 1000 to 10000 |
| NC1(c2ccc(-c3nc4c(cc3-c3ccccc3)N(CCF)C(=O)N(CCF)C4)cc2)CCC1 [Example 109, 6-(4-(1-aminocyclobutyl)phenyl)-1,3-bis(2-fluoroethyl)-7-phenyl-3,4-dihydropyrido[3,2-d]pyrimidin-2(1H)-one] | ≤ 100 | ≤ 100 | 100 to 1000 |
| NC1(c2ccc(-c3nc4c(cc3-c3ccccc3)-n3c(nnc3C3CC3)CO4)cc2)CCC1 [Example 110, 1-(4-(1-cyclopropyl-8-phenyl-4H-pyrido[2,3-b][1,2,4]triazolo[4,3-d][1,4]oxazin-7-yl)phenyl)cyclobutanamine] | 100 to 1000 | 100 to 1000 | 100 to 1000 |
| CC(C)c1nnc2n1-c1cc(-c3ccccc3)c(-c3ccc(C4(N)CCC4)cc3)nc1OC2 [Example 112, 1-(4-(1-isopropyl-8-phenyl-4H-pyrido[2,3-b][1,2,4]triazolo[4,3-d][1,4]oxazin-7-yl)phenyl)cyclobutanamine] | 100 to 1000 | 1000 to 10000 | 1000 to 10000 |
| CC(C)Cc1nnc2n1-c1cc(-c3ccccc3)c(-c3ccc(C4(N)CCC4)cc3)nc1OC2 [Example 115, 1-(4-(1-isobutyl-8-phenyl-4H-pyrido[2,3-b][1,2,4]triazolo[4,3-d][1,4]oxazin-7-yl)phenyl)cyclobutanamine] | 100 to 1000 | 100 to 1000 | 1000 to 10000 |
| CN(C)c1nnc2n1-c1cc(-c3ccccc3)c(-c3ccc(C4(N)CCC4)cc3)nc1OC2 [Example 116, 7-(4-(1-aminocyclobutyl)phenyl)-N,N-dimethyl-8-phenyl-4H-pyrido[2,3-b][1,2,4]triazolo[4,3-d][1,4]oxazin-1-amine] | 1000 to 10000 | 1000 to 10000 | 1000 to 10000 |
| NC1(c2ccc(-c3nc4c(cc3-c3ccccc3)N(CCF)C(=O)CCN4)cc2)CCC1 [Example 117, 7-(4-(1-aminocyclobutyl)phenyl)-1-(2-fluoroethyl)-8-phenyl-4,5-dihydro-1H-pyrido[2,3-b][1,4]diazepin-2(3H)-one] | 1000 to 10000 | 1000 to 10000 | 1000 to 10000 |
| NC1(c2ccc(-c3nc4c(cc3-c3ccccc3)-n3c(nnc3CC(F)(F)F)CO4)cc2)CCC1 [Example 118, 1-(4-(8-phenyl-1-(2,2,2-trifluoroethyl)-4H-pyrido[2,3-b][1,2,4]triazolo[4,3-d][1,4]oxazin-7-yl)phenyl)cyclobutanamine] | 100 to 1000 | 1000 to 10000 | 1000 to 10000 |
| NC(=O)c1nnc2n1-c1cc(-c3ccccc3)c(-c3ccc(C4(N)CCC4)cc3)nc1OC2 [Example 119, 7-(4-(1-aminocyclobutyl)phenyl)-8-phenyl-4H-pyrido[2,3-b][1,2,4]triazolo[4,3-d][1,4]oxazine-1-carboxamide] | 100 to 1000 | 100 to 1000 | 1000 to 10000 |
| COCCc1nnc2n1-c1cc(-c3ccccc3)c(-c3ccc(C4(N)CCC4)cc3)nc1OC2 [Example 121, 1-(4-(1-(2-methoxyethyl)-8-phenyl-4H-pyrido[2,3-b][1,2,4]triazolo[4,3-d][1,4]oxazin-7-yl)phenyl)cyclobutanamine] | 100 to 1000 | 1000 to 10000 | 1000 to 10000 |
| NC1(c2ccc(-c3nc4c(cc3-c3ccccc3)-n3c(nnc3-c3cccnc3)CO4)cc2)CCC1 [Example 122, 1-(4-(8-phenyl-1-(pyridin-3-yl)-4H-pyrido[2,3-b][1,2,4]triazolo[4,3-d][1,4]oxazin-7-yl)phenyl)cyclobutanamine] | 100 to 1000 | 1000 to 10000 | 1000 to 10000 |
| NC1(c2ccc(-c3nc4c(cc3-c3ccccc3)-n3c(nnc3-c3ccncc3)CO4)cc2)CCC1 [Example 123, 1-(4-(8-phenyl-1-(pyridin-4-yl)-4H-pyrido[2,3-b][1,2,4]triazolo[4,3-d][1,4]oxazin-7-yl)phenyl)cyclobutanamine] | ≤ 100 | 1000 to 10000 | 1000 to 10000 |
| NC1(c2ccc(-c3nc4c(cc3-c3ccccc3)C(=O)COC4)cc2)CCC1 [Example 127, 2-(4-(1-aminocyclobutyl)phenyl)-3-phenyl-6,8-dihydro-5H-pyrano[3,4-b]pyridin-5-one] | 1000 to 10000 | > 10000 | > 10000 |
| C[C@]1(O)C[C@@](N)(c2ccc(-c3nc4c(cc3-c3ccccc3)-n3c(nnc3C(F)F)CO4)cc2)C1 [Example 128, (1r,3r)-3-amino-3-(4-(1-(difluoromethyl)-8-phenyl-4H-pyrido[2,3-b][1,2,4]triazolo[4,3-d][1,4]oxazin-7-0)phenyl)-1-methylcyclobutanol] | ≤ 100 | 100 to 1000 | 100 to 1000 |
| NC1(c2ccc(-c3nc4c(cc3-c3ccccc3)-n3c(nnc3-c3ccccc3)CO4)cc2)CCC1 [Example 129, 1-(4-(1,8-diphenyl-4H-pyrido[2,3-b][1,2,4]triazolo[4,3-d][1,4]oxazin-7-yl)phenyl)cyclobutanamine] | 100 to 1000 | 1000 to 10000 | 1000 to 10000 |
| NC1(c2ccc(-c3nc4c(cc3-c3ccccc3)-n3c(nnc3-c3ccccn3)CO4)cc2)CCC1 [Example 130, 1-(4-(8-phenyl-1-(pyridin-2-yl)-4H-pyrido[2,3-b][1,2,4]triazolo[4,3-d][1,4]oxazin-7-yl)phenyl)cyclobutanamine] | 100 to 1000 | > 10000 | > 10000 |

Now from value to compound:

| IC50 [1] [nM] | IC50 [2] [nM] | IC50 [3] [nM] | Structure (SMILES) |
| --- | --- | --- | --- |
| ≤ 100 | ≤ 100 | 1000 to 10000 | CCCN1C(=O)COc2nc(-c3ccc(C4(N)CCC4)cc3)c(-c3ccccc3)cc21 [Example 105, 6-(4-(1-aminocyclobutyl)phenyl)-7-phenyl-1-propyl-1H-pyrido[2,3-b][1,4]oxazin-2(3H)-one] |
| 100 to 1000 | 100 to 1000 | 1000 to 10000 | CC(CO)(CO)CN1C(=O)COc2nc(-c3ccc(C4(N)CCC4)cc3)c(-c3ccccc3)cc21 [Example 106, 6-(4-(1-aminocyclobutyl)phenyl)-1-(3-hydroxy-2-(hydroxymethyl)-2-methylpropyl)-7-phenyl-1H-pyrido[2,3-b][1,4]oxazin-2(3H)-one] |
| 100 to 1000 | 100 to 1000 | 1000 to 10000 | CN1C(=O)NCc2nc(-c3ccc(C4(N)CCC4)cc3)c(-c3ccccc3)cc21 [Example 108, 6-(4-(1-aminocyclobutyl)phenyl)-1-methyl-7-phenyl-3,4-dihydropyrido[3,2-d]pyrimidin-2(1H)-one] |
| 1000 to 10000 | 1000 to 10000 | > 10000 | CN1CCC(=O)N(C)c2cc(-c3ccccc3)c(-c3ccc(C4(N)CCC4)cc3)nc21 [Example 111, 7-(4-(1-aminocyclobutyl)phenyl)-1,5-dimethyl-8-phenyl-4,5-dihydro-1H-pyrido[2,3-b][1,4]diazepin-2(3H)-one] |
| ≤ 100 | 100 to 1000 | 1000 to 10000 | CN1C(=O)COc2nc(-c3ccc([C@]4(N)C[C@](C)(O)C4)cc3)c(-c3ccccc3)cc21 [Example 113, 6-(4-((1r,3r)-1-amino-3-hydroxy-3-methylcyclobutyl)phenyl)-1-methyl-7-phenyl-1H-pyrido[2,3-b][1,4]oxazin-2(3H)-one] |
| 1000 to 10000 | 1000 to 10000 | > 10000 | CN1C(=O)CCNc2nc(-c3ccc(C4(N)CCC4)cc3)c(-c3ccccc3)cc21 [Example 114, 7-(4-(1-aminocyclobutyl)phenyl)-1-methyl-8-phenyl-4,5-dihydro-1H-pyrido[2,3-b][1,4]diazepin-2(3H)-one] |
| ≤ 100 | 100 to 1000 | 100 to 1000 | NC1(c2ccc(-c3nc4c(cc3-c3ccccc3)-n3c(CF)nnc3CO4)cc2)CCC1 [Example 120, 1-(4-(1-(fluoromethyl)-8-phenyl-4H-pyrido[2,3-b][1,2,4]triazolo[4,3-d][1,4]oxazin-7-yl)phenyl)cyclobutanamine] |
| 1000 to 10000 | 1000 to 10000 | 1000 to 10000 | CN1C(=O)COc2nc(-c3ccc(C4(N)CCC4)cc3)c(-c3cccnc3)cc21 [Example 124, 6-(4-(1-aminocyclobutyl)phenyl)-1-methyl-7-(pyridin-3-0)-1H-pyrido[2,3-b][1,4]oxazin-2(3H)-one] |
| 100 to 1000 | 1000 to 10000 | 1000 to 10000 | CN1C(=O)COc2nc(-c3ccc(C4(N)CCC4)cc3)c(-c3ccsc3)cc21 [Example 125, 6-(4-(1-aminocyclobutyl)phenyl)-1-methyl-7-(thiophen-3-yl)-1H-pyrido[2,3-b][1,4]oxazin-2(3H)-one] |
| 100 to 1000 | 100 to 1000 | 1000 to 10000 | CN1C(=O)COc2nc(-c3ccc(C4(N)CCC4)cc3)c(-c3cccs3)cc21 [Example 126, 6-(4-(1-aminocyclobutyl)phenyl)-1-methyl-7-(thiophen-2-yl)-1H-pyrido[2,3-b][1,4]oxazin-2(3H)-one] |
| 1000 to 10000 | 100 to 1000 | 1000 to 10000 | CN1C(=O)COc2nc(-c3ccc(CN)cc3)c(-c3ccccc3)cc21 [Example 131, 6-(4-(aminomethyl)phenyl)-1-methyl-7-phenyl-1H-pyrido[2,3-b][1,4]oxazin-2(3H)-one] |
